# Measurements taken from patent US10342766B2, “6-shogaol derivatives and activities thereof” (North Carolina Agricultural and Technical State University, priority 2017, dated 2019).
# Where “and” joins values, the source holds several entries; their conditions need not be identical. Identical values can stand only once.
# What was measured:
# [1] = test system: Nrf2; assay: Nrf2 reporter activity by Tg(gstp1:GFP) fluorescence in transgenic zebrafish embryos; format: in vivo; conditions: 5 μM, 24-hour treatment from 1 dpf to 2 dpf; olfactory epithelia; relative to vehicle (DMSO = 1.00)
# Protocol: Zebrafish AB transgenic strains Tg(gstp1:GFP) were maintained in a Pentair Aquatic Ecosystem (Apopka, Fla., United States of America) fish housing unit with 14 h light/10 h dark cycle (see Tsujita, T., Li, L., Nakajima, H., Iwamoto, N., Nakajima-Takagi, Y., Ohashi, K., Kawakami, K., Kumagai, Y., Freeman, B. A., Yamamoto, M., and Kobayashi, M. (2011) “Nitro-fatty acids and cyclopentenone prostaglandins share strategies to activate the Keap1-Nrf2 system: a study using green fluorescent protein transgenic zebrafish.” Genes Cells 16, 46-57). The fish embryos were maintained at 28.5° C. in 0.3× Danieau's solution (19.3 mM NaCl, 0.23 mM KCl, 0.13 mM MgSO4, 0.2 mM Ca(NO3)2, 1.7 mM HEPES, pH 7.0) containing 30 μg/ml phenylthiourea (PTU) to inhibit pigmentation. Tg(gstp1:GFP) cross with AB wild-type strain fluorescence embryos were used for the experiment. Zebrafish embryos were washed, dechorionated and anaesthetized before observations, and fluorescence imaging for analysis.
# Transgenic zebrafish embryos at 1 day-post-fertilization (dpf) were dechorionated and placed in Petri dishes containing different chemicals diluted in 0.3× Danieau's solution containing PTU. The chemical stock was dissolved in DMSO at 5 mM concentration.
# An Olympus MVX10 Fluorescence Macroscope (Olympus, Center Valley, Pa., United States of America) equipped with a Hamamatsu C9300-221 high-speed digital CCD camera (Hamamatsu City, Japan) was used for fluorescence microscopy. Tg(gstp1:GFP) fluorescent embryos were anaesthetized in tricaine and imaged at 2 dpf. MetaMorph Basic software (Olympus, Center Valley, Pa., United States of America) was used for image acquisition and analysis.
# Quantification of Nrf2 Reporter Activity by Tg(gstp1:
# GFP) Fluoresence in Zebrafish Model. The fluorescence intensity of the olfactory neural epithelia was quantitated using MetaMorph Basic software. In brief, GFP expression in the olfactory regions of Tg(gstp1:GFP) embryos treated with various chemicals was measured after 24-hour treatment from 1 dpf to 2 dpf. The GFP induction was detectable by fluorescence signal at the area of the olfactory epithelia in the anterior of the head region, the intensity was measured using an area of a circle of 60 pixel diameter of the fluorescence olfactory epithelia subtracted by a background non-fluorescence area next to the zebrafish embryo. Both the left and right olfactory epithelia were measured to give an average fluorescence value. The values are an average of measurements from at least 10 embryos.
# [2] = test system: human colon cancer cells HCT-116; assay: MTT growth inhibition, HCT-116; format: cell-based; conditions: 24 hours
# Protocol: (§1) Cell viability was determined by an MTT colorimetric assay. Briefly, human colon cancer cells HCT-116 or HT-29, were plated in 96-well microtiter plates with 3000 cells/well and allowed to attach for 24 hours at 37° C. and 5% CO2. The test compounds (in DMSO) were added to cell culture medium to desired final concentrations (final DMSO concentrations for control and treatments were 0.1%). After the cells were cultured for 24 hours, the medium was aspirated and cells were treated with 200 μL fresh medium containing 2.41 mmol/L MTT. After incubation for 3 hours at 37° C., the medium containing MTT was aspirated, 100 μL of DMSO was added to solubilize the formazan precipitate, and the plates were shaken gently for an hour at room temperature. Absorbance values were derived from the plate reading at 550 nm on a Biotek (Winooski, Vt., United States of America) microtiter plate reader. The reading reflected the number of viable cells and was expressed as a percentage of viable cells in the control. CCD-18Co cells were grown in EMEM. Both HCT-116 and HT-29 cells were cultured in McCoy's 5A medium. All of the above media were supplemented with 10% fetal bovine serum, 1% penicillin/streptomycin, and 1% glutamine, and the cells were kept in a 37° C. incubator with 95% humidity and 5% CO2.
# [3] = test system: human colon cancer cells HT-29; assay: MTT growth inhibition, HT-29; format: cell-based; conditions: 24 hours
# Protocol: as §1
# [4] = Biotransformation in zebrafish embryos (cysteine conjugates, LC/MS); format: in vivo; conditions: 5 μM in incubation medium, 8 hpf to 24 hpf
# Protocol: Fifty zebrafish embryos at the 8 hour-post-fertilization (hpf) stage were incubated at 28.5° C. in 0.3× Danieau's solution (19.3 mM NaCl, 0.23 mM KCl, 0.13 mM MgSO4, 0.2 mM Ca(NO3)2, 1.7 mM HEPES, pH 7.0) with or without 5 μM 18 and 25-27, respectively. At 24 hpf, embryos were dechorionated manually and the chorions were carefully removed one by one from the culture medium. The zebrafish embryos were harvested and kept at −80° C. till analyzed by LC/MS.
# 200 μL Sodium acetate buffer solution (pH 5.0) was added to 50 zebrafish embryos. Samples were homogenized for 90 s by an Omni Bead Ruptor Homogenizer (Kennesaw, Ga., United States of America). 10 μL 10% ascorbic acid and 300 μL sodium acetate buffer were added to the homogenates. The mixture was incubated in the presence of β-glucuronidase (250 U) and sulfatase (3 U) at 37° C. for 45 min, and then 600 μL MeOH with 1% acetic acid was added. The resulting mixture was vortexed for 30 s and then centrifuged at 17000 g for 10 min. The supernatant was removed and evaporated under a gentle stream of nitrogen. The residue was reconstituted in 150 μL 90% MeOH with 0.2% acetic acid (AA), and 10 μL was analyzed directly by LC/MS.
# LC/MS analysis was carried out with a Thermo-Finnigan Spectra System, which consisted of an Accela high speed MS pump, an Accela refrigerated autosampler, and an LCQ Fleet ion trap mass detector (Thermo Electron, San Jose, Calif., United States of America) incorporated with an electrospray ionization (ESI) interface. A Gemini-NX C18 column (150 mm×4.6 mm i.d., 5 μm; Phenomenex, Torrance, Calif., United States of America) was used for separation at a flow rate of 0.3 mL/min. The column was eluted with 100% A (5% aqueous methanol with 0.2% formic acid) for 1 min, followed by linear increases in B (95% aqueous methanol with 0.2% formic acid) to 55% from 1 to 4 min, to 85% from 4 to 25 min, then to 100% B from 25 to 30 min, and then with 100% B from 30 to 35 min. The column was then re-equilibrated with 100% A for 5 min. The LC eluent was introduced into the ESI interface. The positive ion polarity mode was set for the ESI source with the voltage on the ESI interface maintained at approximately 4.6 kV. Nitrogen gas was used as the sheath gas and auxiliary gas. Optimized source parameters, including capillary temperature (260° C.), sheath gas flow rate (31 arbitrary units), auxiliary gas flow rate (16 units), tube lens (34 V), and capillary voltage 9 V, were tuned using authentic samples. The collision-induced dissociation (CID) was conducted with an isolation width 2 Da and normalized collision energy of 35 for MS^2. The mass range was measured from 100 to 800 m/z. Data acquisition was performed with Xcalibur version 2.0 (Thermo Electron, San Jose, Calif., United States of America).
compound,measurement,setting,value
CCCCC/C=C/C(=O)/C=C/c1ccc(O)c(O)c1 [Compound 26],"Ratio/CTL, Tg(gstp1:GFP) fluorescence signal",[1],6.96 and 6.96 ± 0.48
same,IC50,[2],5.42 µM
same,IC50,[3],11.5 µM
same,Cysteine conjugates found in zebrafish embryos,[4],"Three conjugates 37, 37b, and 38 were detected"
